# Measurements published in ChEMBL document CHEMBL1201862, “PubChem BioAssay data set” (2004).
#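 Where inhibition never reached the appropriate level, the endpoint shown equals the highest concentration tested. Otherwise, values were interpolated linearly from a five-concentration, 48-hour dose response in 96-well plates. GI50 is the concentration that inhibits growth by half.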 Active and inactive are the calls of the source. No stated cut-off is given here; in the data, active = GI50 up to about 1.1 µM and inactive = higher.
# Tests used:
# Assay in all cases: growth of human tumour cells (NCI), 48 h
# MOLT-4 = test system: MOLT-4
# SNB-75 = test system: SNB-75
# NCI-H23 = test system: NCI-H23
# UO-31 = test system: UO-31
# NCI/ADR-RES = test system: NCI/ADR-RES
# XF498 = test system: XF498
# DMS-114 = test system: DMS-114
# KM12 = test system: KM12
# SF-539 = test system: SF-539
# HCC 2998 = test system: HCC 2998
# M19-MEL = test system: M19-MEL
# LOX IMVI = test system: LOX IMVI
# Malme-3M = test system: Malme-3M
# HCT-116 = test system: HCT-116
# SK-MEL-2 = test system: SK-MEL-2
# OVCAR-3 = test system: OVCAR-3
# HT-29 = test system: HT-29
# HOP-62 = test system: HOP-62
# SK-MEL-5 = test system: SK-MEL-5
# DLD-1 = test system: DLD-1
# EKVX = test system: EKVX
# HCT-15 = test system: HCT-15
# HL-60 = test system: HL-60
# HOP-18 = test system: HOP-18
# SK-OV-3 = test system: SK-OV-3
# OVCAR-8 = test system: OVCAR-8
# NCI-H226 = test system: NCI-H226
# CAKI-1 = test system: CAKI-1
# DMS-273 = test system: DMS-273
# COLO 205 = test system: COLO 205
# SNB-78 = test system: SNB-78
# K562 = test system: K562
# RPMI-8226 = test system: RPMI-8226
# OVCAR-4 = test system: OVCAR-4
# A498 = test system: A498
# RXF 393 = test system: RXF 393
# NCI-H460 = test system: NCI-H460
# HOP-92 = test system: HOP-92
# SNB-19 = test system: SNB-19
# UACC-62 = test system: UACC-62
# A549 = test system: A549
# SN12C = test system: SN12C
# U-251 = test system: U-251
# NCI-H522 = test system: NCI-H522
# CCRF-CEM = test system: CCRF-CEM
# MCF7 = test system: MCF7
# IGROV-1 = test system: IGROV-1
# SF-295 = test system: SF-295
# KM-20L2 = test system: KM-20L2
# SW-620 = test system: SW-620
# UACC-257 = test system: UACC-257
# SF-268 = test system: SF-268
# OVCAR-5 = test system: OVCAR-5
# SK-MEL-28 = test system: SK-MEL-28
# TK-10 = test system: TK-10
# ACHN = test system: ACHN
# 786-0 = test system: 786-0
# M14 = test system: M14
# LXFL 529 = test system: LXFL 529
# SR = test system: SR
structure (smiles),measurement,setting,value
O=C1c2cccc3cc4ccccc4c(c23)C(=O)N1CCNCCN1C(=O)c2cccc3cc4ccccc4c(c23)C1=O,GI50,MOLT-4,0.097 µM (active)
same,GI50,SNB-75,0.373 µM (active)
same,GI50,NCI-H23,0.364 µM (active)
same,GI50,UO-31,0.277 µM (active)
same,GI50,NCI/ADR-RES,0.522 µM (active)
same,GI50,XF498,0.254 µM (active)
same,GI50,DMS-114,0.23 µM (active)
same,GI50,KM12,3.93 µM (inactive)
same,GI50,SF-539,0.773 µM (active)
same,GI50,HCC 2998,0.912 µM (active)
same,GI50,M19-MEL,0.508 µM (active)
same,GI50,LOX IMVI,0.233 µM (active)
same,GI50,Malme-3M,0.465 µM (active)
same,GI50,HCT-116,0.415 µM (active)
same,GI50,SK-MEL-2,1.58 µM (inactive)
same,GI50,OVCAR-3,0.484 µM (active)
same,GI50,HT-29,0.351 µM (active)
same,GI50,HOP-62,1.04 µM (active)
same,GI50,SK-MEL-5,0.504 µM (active)
same,GI50,DLD-1,0.714 µM (active)
same,GI50,EKVX,0.587 µM (active)
same,GI50,HCT-15,0.309 µM
same,GI50,HL-60,0.178 µM (active)
same,GI50,HOP-18,0.231 µM (active)
same,GI50,SK-OV-3,1.34 µM (inactive)
same,GI50,OVCAR-8,0.357 µM (active)
same,GI50,NCI-H226,2.21 µM (inactive)
same,GI50,CAKI-1,0.245 µM (active)
same,GI50,DMS-273,0.277 µM (active)
same,GI50,COLO 205,0.731 µM (active)
same,GI50,SNB-78,0.518 µM (active)
same,GI50,K562,0.301 µM (active)
same,GI50,RPMI-8226,0.718 µM (active)
same,GI50,OVCAR-4,0.625 µM (active)
same,GI50,A498,0.716 µM (active)
same,GI50,RXF 393,0.525 µM (active)
same,GI50,NCI-H460,0.0541 µM (active)
same,GI50,HOP-92,0.449 µM (active)
same,GI50,SNB-19,0.39 µM (active)
same,GI50,UACC-62,0.318 µM (active)
same,GI50,A549,0.186 µM (active)
same,GI50,SN12C,0.306 µM (active)
same,GI50,U-251,0.282 µM (active)
same,GI50,NCI-H522,1.53 µM (inactive)
same,GI50,CCRF-CEM,0.199 µM (active)
same,GI50,MCF7,0.282 µM (active)
same,GI50,IGROV-1,0.589 µM (active)
same,GI50,SF-295,0.243 µM (active)
same,GI50,KM-20L2,0.518 µM (active)
same,GI50,SW-620,0.238 µM (active)
same,GI50,UACC-257,1.27 µM (inactive)
same,GI50,SF-268,1.22 µM (inactive)
same,GI50,OVCAR-5,0.406 µM (active)
same,GI50,SK-MEL-28,0.592 µM (active)
CC1=C(O)/C(=C/C(C)CCC/C(C)=C/C=C/C(C)CCCc2ccoc2)OC1=O (stereo not drawn),GI50,SNB-75,25.2 µM (inactive)
same,GI50,NCI-H23,23.7 µM (inactive)
same,GI50,UO-31,69.2 µM (inactive)
same,GI50,XF498,7.08 µM (inactive)
same,GI50,TK-10,20.9 µM (inactive)
same,GI50,DMS-114,49.7 µM (inactive)
same,GI50,KM12,34.4 µM (inactive)
same,GI50,ACHN,19.2 µM (inactive)
same,GI50,SF-539,30.3 µM (inactive)
same,GI50,HCC 2998,23 µM (inactive)
same,GI50,M19-MEL,48.3 µM (inactive)
same,GI50,786-0,25.5 µM (inactive)
same,GI50,LOX IMVI,34.2 µM (inactive)
same,GI50,Malme-3M,10.1 µM (inactive)
same,GI50,HCT-116,> 10 µM (inactive)
same,GI50,SK-MEL-2,25.5 µM (inactive)
same,GI50,HT-29,45.4 µM (inactive)
same,GI50,HOP-62,18.5 µM (inactive)
same,GI50,DLD-1,31 µM (inactive)
same,GI50,EKVX,25 µM (inactive)
same,GI50,HL-60,24.7 µM (inactive)
same,GI50,OVCAR-8,34.4 µM (inactive)
same,GI50,NCI-H226,23.2 µM (inactive)
same,GI50,CAKI-1,45.5 µM (inactive)
same,GI50,DMS-273,55.3 µM (inactive)
same,GI50,COLO 205,35.3 µM (inactive)
same,GI50,SNB-78,18.3 µM (inactive)
same,GI50,OVCAR-4,29.4 µM (inactive)
same,GI50,RXF 393,24.7 µM (inactive)
same,GI50,NCI-H460,30.3 µM (inactive)
same,GI50,A549,27.2 µM (inactive)
same,GI50,M14,36 µM (inactive)
same,GI50,SN12C,35.3 µM (inactive)
same,GI50,U-251,37.8 µM (inactive)
same,GI50,NCI-H522,37.2 µM (inactive)
same,GI50,LXFL 529,31.8 µM (inactive)
same,GI50,SF-295,31.9 µM (inactive)
same,GI50,KM-20L2,29.6 µM (inactive)
same,GI50,SW-620,33.3 µM (inactive)
same,GI50,UACC-257,21.7 µM (inactive)
same,GI50,SF-268,26.7 µM (inactive)
same,GI50,OVCAR-5,23.8 µM (inactive)
same,GI50,SK-MEL-28,25 µM (inactive)
Cc1ccc(NC(=O)CC2C(=O)Nc3ccccc3[S+]2[O-])cc1C (stereo not drawn),GI50,MOLT-4,25.5 µM (inactive)
same,GI50,SNB-75,> 100 µM (inactive)
same,GI50,NCI-H23,63.5 µM (inactive)
same,GI50,UO-31,42.1 µM (inactive)
same,GI50,XF498,> 100 µM (inactive)
same,GI50,TK-10,> 100 µM (inactive)
same,GI50,DMS-114,48.1 µM (inactive)
same,GI50,ACHN,73.8 µM (inactive)
same,GI50,SF-539,23.7 µM (inactive)
same,GI50,HCC 2998,> 100 µM (inactive)
same,GI50,M19-MEL,> 100 µM (inactive)
same,GI50,786-0,24.8 µM (inactive)
same,GI50,LOX IMVI,48.6 µM (inactive)
same,GI50,Malme-3M,> 100 µM (inactive)
same,GI50,HCT-116,49.2 µM (inactive)
same,GI50,SK-MEL-2,> 100 µM (inactive)
same,GI50,OVCAR-3,40.6 µM (inactive)
same,GI50,HT-29,> 100 µM (inactive)
same,GI50,SR,63.5 µM (inactive)
same,GI50,SK-MEL-5,73.8 µM (inactive)
same,GI50,DLD-1,> 100 µM (inactive)
same,GI50,EKVX,> 100 µM (inactive)
same,GI50,HCT-15,> 100 µM
same,GI50,HL-60,41.7 µM (inactive)
same,GI50,OVCAR-8,34 µM (inactive)
same,GI50,NCI-H226,> 100 µM (inactive)
same,GI50,CAKI-1,> 100 µM (inactive)
same,GI50,DMS-273,28.1 µM (inactive)
same,GI50,SNB-78,> 100 µM (inactive)
same,GI50,K562,91.8 µM (inactive)
same,GI50,RPMI-8226,29 µM (inactive)
same,GI50,OVCAR-4,16.4 µM (inactive)
same,GI50,A498,> 100 µM (inactive)
same,GI50,RXF 393,22 µM (inactive)
same,GI50,NCI-H460,> 100 µM (inactive)
same,GI50,HOP-92,26 µM (inactive)
same,GI50,SNB-19,46 µM (inactive)
same,GI50,UACC-62,> 100 µM (inactive)
same,GI50,A549,> 100 µM (inactive)
same,GI50,M14,> 100 µM (inactive)
same,GI50,SN12C,> 100 µM (inactive)
same,GI50,U-251,44.3 µM (inactive)
same,GI50,NCI-H522,32.1 µM (inactive)
same,GI50,CCRF-CEM,> 100 µM (inactive)
same,GI50,LXFL 529,88.3 µM (inactive)
same,GI50,IGROV-1,> 100 µM (inactive)
same,GI50,SF-295,> 100 µM (inactive)
same,GI50,KM-20L2,> 100 µM (inactive)
same,GI50,SW-620,66.4 µM (inactive)
same,GI50,UACC-257,> 100 µM (inactive)
same,GI50,SF-268,75.2 µM (inactive)
same,GI50,OVCAR-5,> 100 µM (inactive)
same,GI50,SK-MEL-28,> 100 µM (inactive)
C[N+](C)(C)CC1CCCC(C[N+](C)(C)C)C1=NO (stereo not drawn),GI50,MOLT-4,> 100 µM (inactive)
same,GI50,SNB-75,> 100 µM (inactive)
same,GI50,NCI-H23,> 100 µM (inactive)
same,GI50,UO-31,> 100 µM (inactive)
same,GI50,XF498,> 100 µM (inactive)
same,GI50,TK-10,> 100 µM (inactive)
same,GI50,KM12,> 100 µM (inactive)
same,GI50,ACHN,> 100 µM (inactive)
same,GI50,SF-539,> 100 µM (inactive)
same,GI50,M19-MEL,> 100 µM (inactive)
same,GI50,786-0,> 100 µM (inactive)
same,GI50,Malme-3M,> 100 µM (inactive)
same,GI50,HCT-116,> 100 µM (inactive)
same,GI50,SK-MEL-2,> 100 µM (inactive)
same,GI50,OVCAR-3,> 100 µM (inactive)
same,GI50,HT-29,> 100 µM (inactive)
same,GI50,SR,> 100 µM (inactive)
same,GI50,SK-MEL-5,> 100 µM (inactive)
same,GI50,DLD-1,> 100 µM (inactive)
same,GI50,EKVX,> 100 µM (inactive)
same,GI50,HCT-15,> 100 µM
same,GI50,HOP-18,> 100 µM (inactive)
same,GI50,SK-OV-3,> 100 µM (inactive)
same,GI50,OVCAR-8,> 100 µM (inactive)
same,GI50,NCI-H226,> 100 µM (inactive)
same,GI50,CAKI-1,> 100 µM (inactive)
same,GI50,DMS-273,> 100 µM (inactive)
same,GI50,COLO 205,> 100 µM (inactive)
same,GI50,SNB-78,> 100 µM (inactive)
same,GI50,K562,> 100 µM (inactive)
same,GI50,RPMI-8226,> 100 µM (inactive)
same,GI50,OVCAR-4,> 100 µM (inactive)
same,GI50,RXF 393,> 100 µM (inactive)
same,GI50,NCI-H460,> 100 µM (inactive)
same,GI50,SNB-19,> 100 µM (inactive)
same,GI50,UACC-62,> 100 µM (inactive)
same,GI50,A549,> 100 µM (inactive)
same,GI50,M14,> 100 µM (inactive)
same,GI50,SN12C,> 100 µM (inactive)
same,GI50,U-251,> 100 µM (inactive)
same,GI50,LXFL 529,> 100 µM (inactive)
same,GI50,IGROV-1,> 100 µM (inactive)
same,GI50,SF-295,> 100 µM (inactive)
same,GI50,KM-20L2,> 100 µM (inactive)
same,GI50,SW-620,> 100 µM (inactive)
same,GI50,UACC-257,> 100 µM (inactive)
same,GI50,OVCAR-5,> 100 µM (inactive)
same,GI50,SK-MEL-28,> 100 µM (inactive)
